Columns and labels:
wild oat = assay: Test B pre/postemergence wild oat; assay type: in vivo, Avena fatua; conditions: for Plant response rating, Wild oats: scale of 0 to 10 where 0 is no effect and 10 is complete control
How it was run: (§1)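 Herbicidal effect was estimated by eye on a ten-point control scale after plants spent twelve to sixteen days in a greenhouse following soil or foliar treatment. Foliar sprays targeted plants at one to four leaves; all doses were formulated in a non-phytotoxic solvent with surfactant.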

sugar beet = assay: Test B pre/postemergence sugar beet; assay type: in vivo, Beta vulgaris; conditions: for Plant response rating, Sugarbeets: scale of 0 to 10 where 0 is no effect and 10 is complete control
How it was run: as §1

soybean = assay: Test B pre/postemergence soybean; assay type: in vivo, Glycine max; conditions: for Plant response rating, Soybean: scale of 0 to 10 where 0 is no effect and 10 is complete control
How it was run: as §1

crabgrass = assay: Test B pre/postemergence crabgrass; assay type: in vivo, Digitaria sanguinalis
How it was run: as §1

giant foxtail = assay: Test B pre/postemergence giant foxtail; assay type: in vivo, Setaria faberii
How it was run: as §1

surinam grass = assay: Test B pre/postemergence surinam grass; assay type: in vivo, Brachiaria decumbens
How it was run: as §1

smallflower flatsedge = assay: Test B flood test smallflower flatsedge; assay type: in vivo, Cyperus difformis
How it was run: (§2)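 Plants were grown to the 2-leaf stage before treatment with test chemical, then held in a greenhouse for twelve to sixteen days. Injury was visually rated against untreated controls on a 0–10 scale, where 0 is no effect and 10 is complete control.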

purple nutsedge = assay: Test B pre/postemergence purple nutsedge; assay type: in vivo, Cyperus rotundus; conditions: for Plant response rating, Nutsedge: scale of 0 to 10 where 0 is no effect and 10 is complete control
How it was run: as §1

morningglory = assay: Test B pre/postemergence morningglory; assay type: in vivo, Ipomoea hederacea; conditions: for Plant response rating, Morningglory: scale of 0 to 10 where 0 is no effect and 10 is complete control
How it was run: as §1

pigweed = assay: Test B pre/postemergence pigweed; assay type: in vivo, Amaranthus retroflexus; conditions: for Plant response rating, Redroot pigweed: scale of 0 to 10 where 0 is no effect and 10 is complete control
How it was run: as §1

rape = assay: Test B pre/postemergence rape; assay type: in vivo, Brassica napus; conditions: for Plant response rating, Rape: scale of 0 to 10 where 0 is no effect and 10 is complete control
How it was run: as §1

corn = assay: Test B pre/postemergence corn; assay type: in vivo, Zea mays
How it was run: as §1

rice = assay: Test B flood test rice; assay type: in vivo, Oryza sativa
How it was run: as §2

cocklebur = assay: Test B pre/postemergence cocklebur; assay type: in vivo, Xanthium strumarium
How it was run: as §1

bamyardgrass = assay: Test B flood test barnyardgrass; assay type: in vivo, Echinochloa crus-galli
How it was run: as §2

duck salad = assay: Test B flood test duck salad; assay type: in vivo, Heteranthera limosa
How it was run: as §2

[1] = Postemergence, Rate 250 g/ha, scale 0 to 10
[2] = Preemergence, Rate 250 g/ha, scale 0 to 10, 0 is no effect, 10 is complete control
[3] = Preemergence, Rate 500 g/ha, scale 0 to 10, 0 is no effect, 10 is complete control
[4] = Rate 62 g/ha, Postemergence, scale 0 to 10 (0 no effect, 10 complete control)
[5] = Rate 125 g/ha, Postemergence, scale 0 to 10, 0 is no effect, 10 is complete control
[6] = Postemergence, Rate 500 g/ha, scale of 0 to 10 where 0 is no effect and 10 is complete control
[7] = Preemergence, Rate 62 g/ha, scale of 0 to 10 where 0 is no effect and 10 is complete control
[8] = Preemergence, Rate 125 g/ha, scale of 0 to 10 where 0 is no effect and 10 is complete control
[9] = Rate 62 g/ha, flood test species, Pre-emergence, visual evaluation after twelve to sixteen days
[10] = Rate 125 g/ha, under heading Pre-emergence, flood test species, visual evaluation after twelve to sixteen days
[11] = Rate 250 g/ha, Pre-emergence (flood test species), scale 0 to 10, 0 is no effect, 10 is complete control
[12] = Rate 500 g/ha, Pre-emergence, flood test species, scale 0 to 10 (0 no effect, 10 complete control)

## CC(C)N(C(=O)n1oc(=O)n(COC(=O)C(C)(C)C)c1=O)c1ccc(F)cc1 [Compound 462]
Wild oat; [1]
  Wild oats plant response rating: 0
Wild oat; Preemergence, Rate 62 g/ha
  Plant response rating, Wild oats: 0
Wild oat; Preemergence, Rate 125 g/ha
  Plant response rating, Wild oats: 0
Wild oat; [2]
  Wild oats plant response rating: 0
Wild oat; [3]
  Wild oats plant response rating: 0
Wild oat; [4]
  Wild oats plant response rating: 0
Wild oat; [5]
  Wild oats plant response rating: 0
Sugar beet; [1]
  Sugarbeets plant response rating: 0
Sugar beet; Preemergence, Rate 62 g/ha
  Plant response rating, Sugarbeets: 0
Sugar beet; Preemergence, Rate 125 g/ha
  Plant response rating, Sugarbeets: 0
Sugar beet; [2]
  Sugarbeets plant response rating: 0
Sugar beet; [3]
  Sugarbeets plant response rating: 0
Sugar beet; [4]
  Sugarbeets plant response rating: 0
Sugar beet; [5]
  Sugarbeets plant response rating: 0
soybean; Preemergence, Rate 62 g/ha
  Plant response rating, Soybean: 0
soybean; Preemergence, Rate 125 g/ha
  Plant response rating, Soybean: 0
soybean; [2]
  Soybean plant response rating: 0
soybean; [3]
  Soybean plant response rating: 0
soybean; [4]
  Soybean plant response rating: 0
soybean; [5]
  Soybean plant response rating: 1
crabgrass; [1]
  Crabgrass plant response rating: 0
crabgrass; [6]
  Crabgrass plant response rating: 0
crabgrass; [7]
  Plant response rating, Crabgrass: 0
crabgrass; [8]
  Plant response rating, Crabgrass: 0
crabgrass; [2]
  Crabgrass plant response rating: 0
crabgrass; [3]
  Crabgrass plant response rating: 0
crabgrass; [4]
  Crabgrass plant response rating: 0
crabgrass; [5]
  Crabgrass plant response rating: 0
Giant foxtail; [1]
  Giant foxtail plant response rating: 0
Giant foxtail; [6]
  Giant foxtail plant response rating: 0
Giant foxtail; [7]
  Plant response rating, Giant foxtail: 0
Giant foxtail; [8]
  Plant response rating, Giant foxtail: 0
Giant foxtail; [2]
  Giant foxtail plant response rating: 0
Giant foxtail; [3]
  Giant foxtail plant response rating: 0
Giant foxtail; [4]
  Giant foxtail plant response rating: 0
Giant foxtail; [5]
  Giant foxtail plant response rating: 0
Surinam grass; Postemergence, Rate 250 g/ha, scale 0 to 10, 0 no effect, 10 complete control
  B. signalgrass plant response rating: 0
Surinam grass; [6]
  B. signalgrass plant response rating: 0
Surinam grass; [7]
  Plant response rating, B. signalgrass: 0
Surinam grass; [8]
  Plant response rating, B. signalgrass: 0
Surinam grass; [2]
  B. signalgrass plant response rating: 0
Surinam grass; [3]
  B. signalgrass plant response rating: 0
Surinam grass; [4]
  B. signalgrass plant response rating: 0
Surinam grass; [5]
  B. signalgrass plant response rating: 0
Smallflower flatsedge; [9]
  Plant response rating, S. Flatsedge (0 to 10 scale, 0 is no effect, 10 is complete control): 0
Smallflower flatsedge; [10]
  S. Flatsedge plant response rating (0 to 10 scale, 0 is no effect, 10 is complete control): 0
Smallflower flatsedge; [11]
  S. Flatsedge plant response rating: 0
Smallflower flatsedge; [12]
  S. Flatsedge plant response rating: 0
Purple nutsedge; [1]
  Nutsedge plant response rating: 0
Purple nutsedge; Preemergence, Rate 62 g/ha
  Plant response rating, Nutsedge: 0
Purple nutsedge; Preemergence, Rate 125 g/ha
  Plant response rating, Nutsedge: 0
Purple nutsedge; [2]
  Nutsedge plant response rating: 0
Purple nutsedge; [3]
  Nutsedge plant response rating: 0
Purple nutsedge; [4]
  Nutsedge plant response rating: 0
Purple nutsedge; [5]
  Nutsedge plant response rating: 0
morningglory; [1]
  Morningglory plant response rating: 0
morningglory; Preemergence, Rate 62 g/ha
  Plant response rating, Morningglory: 0
morningglory; Preemergence, Rate 125 g/ha
  Plant response rating, Morningglory: 0
morningglory; [2]
  Morningglory plant response rating: 0
morningglory; [3]
  Morningglory plant response rating: 0
morningglory; [4]
  Morningglory plant response rating: 0
morningglory; [5]
  Morningglory plant response rating: 0
pigweed; [1]
  Redroot pigweed plant response rating: 0
pigweed; Preemergence, Rate 62 g/ha
  Plant response rating, Redroot pigweed: 0
pigweed; Preemergence, Rate 125 g/ha
  Plant response rating, Redroot pigweed: 0
pigweed; [2]
  Redroot pigweed plant response rating: 0
pigweed; [3]
  Redroot pigweed plant response rating: 0
pigweed; [4]
  Redroot pigweed plant response rating: 0
pigweed; [5]
  Redroot pigweed plant response rating: 0
rape; [1]
  Rape plant response rating: 0
rape; Preemergence, Rate 62 g/ha
  Plant response rating, Rape: 0
rape; Preemergence, Rate 125 g/ha
  Plant response rating, Rape: 0
rape; [2]
  Rape plant response rating: 0
rape; [3]
  Rape plant response rating: 0
rape; [4]
  Rape plant response rating: 0
rape; [5]
  Rape plant response rating: 0
corn; [1]
  Corn plant response rating: 0
corn; [6]
  Corn plant response rating: 0
corn; [7]
  Plant response rating, Corn: 0
corn; [8]
  Plant response rating, Corn: 0
corn; [2]
  Corn plant response rating: 0
corn; [3]
  Corn plant response rating: 0
corn; [4]
  Corn plant response rating: 0
corn; [5]
  Corn plant response rating: 0
rice; [9]
  Plant response rating, Rice (0 to 10 scale, 0 is no effect, 10 is complete control): 0
rice; [10]
  Rice plant response rating (0 to 10 scale, 0 is no effect, 10 is complete control): 0
rice; [11]
  Rice plant response rating: 0
rice; [12]
  Rice plant response rating: 0
cocklebur; [1]
  Cocklebur plant response rating: 0
cocklebur; [6]
  Cocklebur plant response rating: 0
cocklebur; [7]
  Plant response rating, Cocklebur: 0
cocklebur; [8]
  Plant response rating, Cocklebur: 0
cocklebur; [2]
  Cocklebur plant response rating: 0
cocklebur; [3]
  Cocklebur plant response rating: 0
cocklebur; [4]
  Cocklebur plant response rating: 0
cocklebur; [5]
  Cocklebur plant response rating: 0
bamyardgrass; [9]
  Plant response rating, Barnyardgrass (0 to 10 scale, 0 is no effect, 10 is complete control): 0
bamyardgrass; [10]
  Barnyardgrass plant response rating (0 to 10 scale, 0 is no effect, 10 is complete control): 0
bamyardgrass; [11]
  Barnyardgrass plant response rating: 0
bamyardgrass; [12]
  Barnyardgrass plant response rating: 0
Duck salad; [9]
  Plant response rating, Ducksalad (0 to 10 scale, 0 is no effect, 10 is complete control): 0
Duck salad; [10]
  Ducksalad plant response rating (0 to 10 scale, 0 is no effect, 10 is complete control): 0
Duck salad; [11]
  Ducksalad plant response rating: 0
Duck salad; [12]
  Ducksalad plant response rating: 0
